Like-named read-outs stand apart in the source and are kept apart here.
Assays:
[1] = Cytotoxicity, cell count of monolayer culture after 24 h exposure; format: cell-based, human; details: human, fl amnion cells, 24 h, read-out: Median der Zellzahl
Method: (§1) Methodik: Die Zytotoxizität wird an der FL-Linie (menschliche Amnionzellen) geprüft. 2-3 Tage nach der Zelleinsaat werden die Zellen, nachdem sie als einschichtige Zellkultur (Monolayer) vorliegen, nach Medienwechsel für 24 h mit der Prüfsubstanz exponiert, danach abgelöst und die Zellzahl in % zur Kontrolle mit dem Zellzähler Universal 87001 (mölab, Hilden) ermittelt.

Staphylococcus aureus [2] = assay: Agar diffusion test, inhibition zone; format: cell-based; details: Aktivator ja, 24 h
Method: Methodik: Decylthiouroniumbromid wurde in abgestuften Konzentrationen im Agar inkorporiert. In Stanzlöcher wurde eine Natriumperboratlösung ohne und mit Aktivierung pipettiert. Die Platten wurden mit Staphylococcus aureus beimpft und 24 h bebrütet. Der entstehende Hemmhof wurde gemessen.

Pseudomonas aeruginosa = assay: Agar incorporation test, bacteriostatic activity; format: cell-based; parameters: key to Bakteriostatische Wirksamkeit (Wachstum): ⊕⊕: ungehemmtes Wachstum; ⊕: vermindertes Wachstum; -: absolute Hemmung (a. H.); details: for Bakteriostatische Wirksamkeit (Wachstum): 24 h bei 36 °C
Description: (§2) Methodik: Percarbamid und Dodecylthiouroniumchlorid werden unter städigem Durchmischen bis zur vollständigen Homogenisierung erwärmt. Die Prüfung der Kombination im Vergleich zu den entsprechenden Monowirkstoffen auf bakteriostatische Wirksamkeit erfolgte im Agarinkorporationstest. Die zu untersuchenden Substanzen wurden in Wasser standardisierter Härte gelöst. Die Konzentration der Testsubstanzen im Nähragar wurde in einer geometrischen Reihe auf der Basis 2 abgestuft. Zum Beimpfen der Testplatten wurden die im Beispiel 1 genannten Testkeime 6 h in Caseinpepton-Sojamehlpepton-Lösung bebrütet und so in eine logarithmische Wachstumsphase gebracht. Danach wurden die Agarplatten sternförmig sektorenweise mit jeweils einer ? abgestrichenen Öse beimpft. Der Sektor von Proteus mirabilis wurde durch Gräben abgetrennt, um das Schwärmen zu verhindern. Nach 24 h Bebrütung bei 36 °C erfolgte die Bewertung des Bakterienwachstums unter Vergleich mit substanzfreien Kontrollplatten nach folgendem Schema: ++++ ungehemmtes Wachstum +++ geringe Wachstumshemmung (maximal ¾ des Wachstums der Kontrollen) ++ mäßige Wachstumshemmung (maximal ½ des Wachstums der Kontrollen) + starke Wachstumshemmung (maximal ¼ des Wachstums der Kontrollen) Das sog. ? verminderte Wachstum" (v. W.) umfaßt die Bereiche + bis +++ - absolute Hemmung (a. H.)
(§3) In den Tabellen 5, 6 und 7 bedeuten ⊕⊕ ungehemmtes Wachstum und ⊕ vermindertes Wachstum.

[3] = tested on: FL-Linie (menschliche Amnionzellen); assay: Cytotoxicity, cell count of monolayer culture after 24 h exposure; format: cell-based, human; details: Prüfkonzentration 0,005 %; 24 h; 1440 min
Method: as §1

Escherichia coli = assay: Agar incorporation test, bacteriostatic activity; format: cell-based; parameters: key: ⊕⊕: ungehemmtes Wachstum; ⊕: vermindertes Wachstum; -: absolute Hemmung (a. H.); details: 24 h bei 36 °C
Description: as §2, §3

Enterococcus faecium = assay: Agar incorporation test, bacteriostatic activity; format: cell-based; parameters: key: ⊕⊕: ungehemmtes Wachstum; ⊕: vermindertes Wachstum; -: absolute Hemmung (a. H.); details: 24 h bei 36 °C
Description: as §2, §3

Proteus mirabilis = assay: Agar incorporation test, bacteriostatic activity; format: cell-based; parameters: key: ⊕⊕: ungehemmtes Wachstum; ⊕: vermindertes Wachstum; -: absolute Hemmung (a. H.); details: 24 h bei 36 °C
Description: as §2, §3

Staphylococcus aureus [4] = assay: Agar incorporation test, bacteriostatic activity; format: cell-based; parameters: key: ⊕⊕: ungehemmtes Wachstum; ⊕: vermindertes Wachstum; -: absolute Hemmung (a. H.); details: 24 h bei 36 °C
Description: as §2, §3

[5] = Konzentration in Wasser 0,0015 %
[6] = Konzentration in Wasser 0,003 %
[7] = Konzentration in Wasser 0,006 %
[8] = Konzentration in Wasser 0,012 %
[9] = Konzentration in Wasser 0,025 %

CCCCCCCCCCSC(=N)N [Decylthiouroniumbromid]
viability at 24 h ([1]; Prüfkonzentration 0,0001 %): 96.8%
viability at 24 h ([1]; Prüfkonzentration 0,005 %): 33.5%
Hemmhofgröße (Staphylococcus aureus [2]; combination: 0,0009% Decylthiouroniumbromid im Agar with Perborat 0,5% im Stanzloch): 19 mm
Hemmhofgröße (Staphylococcus aureus [2]; combination: 0,0019% Decylthiouroniumbromid im Agar with Perborat 0,5% im Stanzloch): 24 mm

CCCCCCCCCCCCSC(=N)N [Dodecylthiouroniumchlorid]
Bakteriostatische Wirksamkeit (Wachstum) (Pseudomonas aeruginosa; Konzentration in Wasser 0,1 %): -
Bakteriostatische Wirksamkeit (Wachstum) (Pseudomonas aeruginosa; Konzentration in Wasser 0,2 %): -
Bakteriostatische Wirksamkeit (Wachstum) (Pseudomonas aeruginosa; Konzentration in Wasser 0,4 %): -
Bakteriostatische Wirksamkeit (Wachstum) (Pseudomonas aeruginosa; Konzentration in Wasser 0,05 %): ⊕
Bakteriostatische Wirksamkeit (Wachstum) (Pseudomonas aeruginosa; Konzentration in Wasser 0,8 %): -
Bakteriostatische Wirksamkeit (Wachstum) (Pseudomonas aeruginosa; [5]): ⊕⊕
Bakteriostatische Wirksamkeit (Wachstum) (Pseudomonas aeruginosa; [6]): ⊕⊕
Bakteriostatische Wirksamkeit (Wachstum) (Pseudomonas aeruginosa; [7]): ⊕⊕
Bakteriostatische Wirksamkeit (Wachstum) (Pseudomonas aeruginosa; [8]): ⊕⊕
Bakteriostatische Wirksamkeit (Wachstum) (Pseudomonas aeruginosa; [9]): ⊕⊕
Konzentration, durch die Pseudomonas aeruginosa gehemmt wird (minimale Hemmkonzentration) (Pseudomonas aeruginosa; single substance, resistentester Testkeim): 0,1%
Median der Zellzahl [3]: 69,9 % der Kontrolle
viability at 24 h ([1]; Prüfkonzentration 0,0001 %): 101%
viability at 24 h ([1]; Prüfkonzentration 0,005 %): 70%
Bakteriostatische Wirksamkeit (Wachstum) (Escherichia coli; Konzentration in Wasser 0,1 %): -
Bakteriostatische Wirksamkeit (Wachstum) (Escherichia coli; Konzentration in Wasser 0,2 %): -
Bakteriostatische Wirksamkeit (Wachstum) (Escherichia coli; Konzentration in Wasser 0,4 %): -
Bakteriostatische Wirksamkeit (Wachstum) (Escherichia coli; Konzentration in Wasser 0,05 %): -
Bakteriostatische Wirksamkeit (Wachstum) (Escherichia coli; Konzentration in Wasser 0,8 %): -
Bakteriostatische Wirksamkeit (Wachstum) (Escherichia coli; [5]): ⊕⊕
Bakteriostatische Wirksamkeit (Wachstum) (Escherichia coli; [6]): ⊕⊕
Bakteriostatische Wirksamkeit (Wachstum) (Escherichia coli; [7]): ⊕⊕
Bakteriostatische Wirksamkeit (Wachstum) (Escherichia coli; [8]): ⊕
Bakteriostatische Wirksamkeit (Wachstum) (Escherichia coli; [9]): -
Bakteriostatische Wirksamkeit (Wachstum) (Enterococcus faecium; Konzentration in Wasser 0,1 %): -
Bakteriostatische Wirksamkeit (Wachstum) (Enterococcus faecium; Konzentration in Wasser 0,2 %): -
Bakteriostatische Wirksamkeit (Wachstum) (Enterococcus faecium; Konzentration in Wasser 0,4 %): -
Bakteriostatische Wirksamkeit (Wachstum) (Enterococcus faecium; Konzentration in Wasser 0,05 %): -
Bakteriostatische Wirksamkeit (Wachstum) (Enterococcus faecium; Konzentration in Wasser 0,8 %): -
Bakteriostatische Wirksamkeit (Wachstum) (Enterococcus faecium; [5]): ⊕⊕
Bakteriostatische Wirksamkeit (Wachstum) (Enterococcus faecium; [6]): ⊕⊕
Bakteriostatische Wirksamkeit (Wachstum) (Enterococcus faecium; [7]): ⊕
Bakteriostatische Wirksamkeit (Wachstum) (Enterococcus faecium; [8]): -
Bakteriostatische Wirksamkeit (Wachstum) (Enterococcus faecium; [9]): -
Bakteriostatische Wirksamkeit (Wachstum) (Proteus mirabilis; Konzentration in Wasser 0,1 %): -
Bakteriostatische Wirksamkeit (Wachstum) (Proteus mirabilis; Konzentration in Wasser 0,2 %): -
Bakteriostatische Wirksamkeit (Wachstum) (Proteus mirabilis; Konzentration in Wasser 0,4 %): -
Bakteriostatische Wirksamkeit (Wachstum) (Proteus mirabilis; Konzentration in Wasser 0,05 %): -
Bakteriostatische Wirksamkeit (Wachstum) (Proteus mirabilis; Konzentration in Wasser 0,8 %): -
Bakteriostatische Wirksamkeit (Wachstum) (Proteus mirabilis; [5]): ⊕⊕
Bakteriostatische Wirksamkeit (Wachstum) (Proteus mirabilis; [6]): ⊕⊕
Bakteriostatische Wirksamkeit (Wachstum) (Proteus mirabilis; [7]): ⊕⊕
Bakteriostatische Wirksamkeit (Wachstum) (Proteus mirabilis; [8]): ⊕
Bakteriostatische Wirksamkeit (Wachstum) (Proteus mirabilis; [9]): ⊕
Bakteriostatische Wirksamkeit (Wachstum) (Staphylococcus aureus [4]; Konzentration in Wasser 0,1 %): -
Bakteriostatische Wirksamkeit (Wachstum) (Staphylococcus aureus [4]; Konzentration in Wasser 0,2 %): -
Bakteriostatische Wirksamkeit (Wachstum) (Staphylococcus aureus [4]; Konzentration in Wasser 0,4 %): -
Bakteriostatische Wirksamkeit (Wachstum) (Staphylococcus aureus [4]; Konzentration in Wasser 0,05 %): -
Bakteriostatische Wirksamkeit (Wachstum) (Staphylococcus aureus [4]; Konzentration in Wasser 0,8 %): -
Bakteriostatische Wirksamkeit (Wachstum) (Staphylococcus aureus [4]; [5]): ⊕⊕
Bakteriostatische Wirksamkeit (Wachstum) (Staphylococcus aureus [4]; [6]): ⊕⊕
Bakteriostatische Wirksamkeit (Wachstum) (Staphylococcus aureus [4]; [7]): -
Bakteriostatische Wirksamkeit (Wachstum) (Staphylococcus aureus [4]; [8]): -
Bakteriostatische Wirksamkeit (Wachstum) (Staphylococcus aureus [4]; [9]): -

— patent EP0940081A1, “Combinations of active agents and disinfectants, preservatives and antiseptics containing same” (Bode Chemie GmbH & Co., priority 1998, dated 1999)
